In ChEMBL document CHEMBL1201862, “PubChem BioAssay data set” (2004):
Values belong to the molecule of their own block, whether it stands above or below them. The source made the active and inactive calls.

How the values were obtained:
[1] = molecular target: DNA dC->dU-editing enzyme APOBEC-3A (Homo sapiens, UniProt P31941); test: A3A deaminase inhibition for selectivity – biochemical, dose response (AID 504722); type: functional
[2] = molecular target: DNA (cytosine-5)-methyltransferase 1 (Homo sapiens, UniProt P26358); test: inhibition of DNA methylation by DNMT1 – biochemical, fluorescent molecular beacon, confirmation (AID 602386); type: functional
[3] = molecular target: Induced myeloid leukemia cell differentiation protein Mcl-1 (Homo sapiens, UniProt Q07820); type: functional
[4] = molecular target: T1, Small ubiquitin-related modifier 1 (Homo sapiens, UniProt P63165); test: SUMO1 protein interaction blockers, potency – biochemical, fluorescence polarization, uHTS hits, dose response (AID 624382); type: functional; conditions: read-out: IC50_Mean
[5] = molecular target: T2, Voltage-gated N-type calcium channel alpha-1B subunit/Amyloid beta A4 precursor protein-binding family A member 1 (Homo sapiens, UniProt Q00975+Q02410); type: protein assay
[6] = molecular target: T2, Voltage-gated N-type calcium channel alpha-1B subunit/Amyloid beta A4 precursor protein-binding family A member 1; type: protein assay; remark: listed apart in the source
[7] = molecular target: T3, Apoptotic protease-activating factor 1 (Homo sapiens, UniProt O14727); test: activation of Apaf-1 mediated apoptosis – fluorescent, uHTS hits, dose response (AID 588554); type: functional
T3 sequence (O14727 whole entry): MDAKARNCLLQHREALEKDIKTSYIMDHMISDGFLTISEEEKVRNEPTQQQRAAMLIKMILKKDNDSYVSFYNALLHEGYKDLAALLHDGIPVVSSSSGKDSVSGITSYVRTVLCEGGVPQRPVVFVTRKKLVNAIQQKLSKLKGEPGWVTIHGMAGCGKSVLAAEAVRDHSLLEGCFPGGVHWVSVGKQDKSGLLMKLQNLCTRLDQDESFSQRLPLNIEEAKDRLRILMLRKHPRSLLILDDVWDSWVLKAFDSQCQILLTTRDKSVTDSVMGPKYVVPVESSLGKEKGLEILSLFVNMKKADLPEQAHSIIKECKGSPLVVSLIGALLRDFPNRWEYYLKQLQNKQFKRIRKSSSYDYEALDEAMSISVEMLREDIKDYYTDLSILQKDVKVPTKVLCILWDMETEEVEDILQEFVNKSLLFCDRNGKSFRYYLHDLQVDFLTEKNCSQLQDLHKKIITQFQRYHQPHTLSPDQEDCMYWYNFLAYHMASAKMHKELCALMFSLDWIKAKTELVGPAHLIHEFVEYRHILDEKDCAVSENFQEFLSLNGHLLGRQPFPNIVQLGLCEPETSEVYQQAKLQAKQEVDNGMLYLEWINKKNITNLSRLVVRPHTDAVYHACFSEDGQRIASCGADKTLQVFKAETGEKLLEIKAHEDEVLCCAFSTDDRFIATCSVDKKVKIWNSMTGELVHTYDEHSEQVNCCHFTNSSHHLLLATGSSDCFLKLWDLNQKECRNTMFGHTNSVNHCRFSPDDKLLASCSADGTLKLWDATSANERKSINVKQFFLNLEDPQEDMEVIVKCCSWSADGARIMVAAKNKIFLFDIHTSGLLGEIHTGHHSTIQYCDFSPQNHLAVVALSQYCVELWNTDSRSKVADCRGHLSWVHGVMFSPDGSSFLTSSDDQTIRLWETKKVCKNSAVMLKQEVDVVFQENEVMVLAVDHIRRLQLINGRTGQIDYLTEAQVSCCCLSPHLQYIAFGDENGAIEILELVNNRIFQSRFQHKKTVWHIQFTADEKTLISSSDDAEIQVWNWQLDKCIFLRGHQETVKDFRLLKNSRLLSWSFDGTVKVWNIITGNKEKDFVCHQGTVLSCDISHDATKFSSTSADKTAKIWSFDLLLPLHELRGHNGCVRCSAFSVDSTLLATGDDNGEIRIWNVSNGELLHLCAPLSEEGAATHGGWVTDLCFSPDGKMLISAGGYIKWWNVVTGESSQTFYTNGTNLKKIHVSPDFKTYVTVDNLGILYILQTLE

[8] = molecular target: T1, Small ubiquitin-related modifier 1; test: SUMO1 protein-protein binding blockers, potency – biochemical, FRET, dose response (AID 624383); type: functional; conditions: read-out: IC50_Mean
[9] = molecular target: DNA dC->dU-editing enzyme APOBEC-3G (Homo sapiens, UniProt Q9HC16); test: Dose Response confirmation of small molecule APOBEC3G DNA Deaminase Inhibitors via a fluorescence-based single-stranded DNA deaminase assay. [Related pubchem assays (depositor defined):AID493012, AID493028]; type: functional
Cytochrome P450 2C19 = Cytochrome P450 2C19 (Homo sapiens, UniProt P33261); test: Cytochrome panel assay with activity outcomes. Panel member name: p450-cyp2c19 Compounds with AC50 equal or less than 10 uM are considered active; type: functional; conditions: read-out: AC50
Cytochrome P450 2D6 = Cytochrome P450 2D6 (Homo sapiens, UniProt P10635);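 also: CYP2D6 member of a cytochrome P450 panel assay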
Cytochrome P450 2C9 = Cytochrome P450 2C9 (Homo sapiens, UniProt P11712)
[10] = molecular target: T4, Intestinal-type alkaline phosphatase (Homo sapiens, UniProt P09923); test: Dose Response confirmation of uHTS hits from a small molecule inhibitors of human intestinal alkaline phosphatase via a luminescent assay. [Related pubchem assays (depositor defined):AID2544, AID2574]; type: functional
[11] = molecular target: T5, Zinc finger protein mex-5 (Caenorhabditis elegans, UniProt Q9XUB2); test: potency of MEX-5 RNA-binding blockers – biochemical, C. elegans, fluorescence polarization, dose response (AID 1960)
T5 sequence (Q9XUB2 whole entry): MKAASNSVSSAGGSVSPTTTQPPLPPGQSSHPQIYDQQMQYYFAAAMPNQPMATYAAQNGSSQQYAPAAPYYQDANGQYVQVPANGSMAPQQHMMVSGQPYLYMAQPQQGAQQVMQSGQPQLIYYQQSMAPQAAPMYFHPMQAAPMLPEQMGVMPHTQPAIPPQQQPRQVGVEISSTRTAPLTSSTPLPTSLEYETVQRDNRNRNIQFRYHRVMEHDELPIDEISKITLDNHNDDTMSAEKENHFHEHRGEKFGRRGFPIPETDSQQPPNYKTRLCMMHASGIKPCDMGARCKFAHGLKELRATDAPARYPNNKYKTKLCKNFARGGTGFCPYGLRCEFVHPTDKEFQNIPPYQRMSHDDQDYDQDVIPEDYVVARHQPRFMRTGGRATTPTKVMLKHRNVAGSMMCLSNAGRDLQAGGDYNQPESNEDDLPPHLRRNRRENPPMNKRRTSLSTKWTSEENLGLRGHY

[12] = molecular target: T6, Alkaline phosphatase, tissue-nonspecific isozyme (Homo sapiens, UniProt P05186); test: potency against alkaline phosphatase TNAP – biochemical, luminescent, dose response, SAR follow-up (AID 1056)
T6 sequence (P05186 whole entry): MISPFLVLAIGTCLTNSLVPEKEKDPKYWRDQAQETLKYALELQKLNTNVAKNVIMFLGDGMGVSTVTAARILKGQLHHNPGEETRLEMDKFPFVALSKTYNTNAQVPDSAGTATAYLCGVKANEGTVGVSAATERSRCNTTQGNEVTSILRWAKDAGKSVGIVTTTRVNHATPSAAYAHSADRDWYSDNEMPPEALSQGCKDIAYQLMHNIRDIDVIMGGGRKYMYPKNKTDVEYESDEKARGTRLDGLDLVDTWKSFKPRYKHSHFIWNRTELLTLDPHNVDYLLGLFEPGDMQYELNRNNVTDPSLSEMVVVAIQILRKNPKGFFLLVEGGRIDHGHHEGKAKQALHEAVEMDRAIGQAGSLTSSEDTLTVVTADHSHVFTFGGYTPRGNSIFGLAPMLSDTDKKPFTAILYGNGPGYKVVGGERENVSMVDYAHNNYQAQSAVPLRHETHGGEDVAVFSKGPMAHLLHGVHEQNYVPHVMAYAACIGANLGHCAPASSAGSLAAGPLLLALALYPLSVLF

[13] = molecular target: T4, Intestinal-type alkaline phosphatase; test: inhibition of human intestinal alkaline phosphatase – biochemical, luminescent, uHTS hits, set 2, dose response (AID 488793); type: functional
[14] = molecular target: T7, RNA-binding protein pos-1 (Caenorhabditis elegans, UniProt G5EF15); test: disruptors of C. elegans POS-1 RNA interaction – biochemical, fluorescence polarization, dose response (AID 1964);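 also: purified POS-1 fused to maltose binding protein made in E. coli; potency of compounds blocking POS-1 binding to fluorescent RNA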
T7 sequence (G5EF15 whole entry): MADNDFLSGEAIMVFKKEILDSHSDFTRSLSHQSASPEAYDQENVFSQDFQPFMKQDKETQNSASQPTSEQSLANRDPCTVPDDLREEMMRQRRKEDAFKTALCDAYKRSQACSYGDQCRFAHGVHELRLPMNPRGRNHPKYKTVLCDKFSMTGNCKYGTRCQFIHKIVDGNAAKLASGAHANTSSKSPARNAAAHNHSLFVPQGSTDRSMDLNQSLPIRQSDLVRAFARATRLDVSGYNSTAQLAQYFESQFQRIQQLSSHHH

[15] = molecular target: T4, Intestinal-type alkaline phosphatase; test: activation of human intestinal alkaline phosphatase – biochemical, dose response (AID 488873); type: functional
[16] = molecular target: Alkaline phosphatase, placental type (Homo sapiens, UniProt P05187); test: human placental alkaline phosphatase inhibition – biochemical, luminescence, confirmation (AID 1512); type: functional
[17] = molecular target: T8, Intestinal-type alkaline phosphatase (Mus musculus, UniProt P24822); test: PubChem AID 488785; type: functional
[18] = molecular target: T6, Alkaline phosphatase, tissue-nonspecific isozyme; test: activation of tissue-nonspecific alkaline phosphatase – biochemical, TNAP isozyme, human IAP uHTS hits, selectivity assay for human IAP activator project, dose response (AID 488886); type: functional;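 also: potency of compounds raising TNAP activity as a selectivity check on IAP activators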
[19] = molecular target: T8, Intestinal-type alkaline phosphatase; test: PubChem AID 488874; type: functional
[20] = molecular target: T6, Alkaline phosphatase, tissue-nonspecific isozyme; test: TNAP enzyme inhibition by screening hits, dose response, selectivity assay for mouse IAP inhibitor project, biochemical, human TNAP, uHTS hits (AID 488906); type: functional

T4 sequence (P09923 whole entry): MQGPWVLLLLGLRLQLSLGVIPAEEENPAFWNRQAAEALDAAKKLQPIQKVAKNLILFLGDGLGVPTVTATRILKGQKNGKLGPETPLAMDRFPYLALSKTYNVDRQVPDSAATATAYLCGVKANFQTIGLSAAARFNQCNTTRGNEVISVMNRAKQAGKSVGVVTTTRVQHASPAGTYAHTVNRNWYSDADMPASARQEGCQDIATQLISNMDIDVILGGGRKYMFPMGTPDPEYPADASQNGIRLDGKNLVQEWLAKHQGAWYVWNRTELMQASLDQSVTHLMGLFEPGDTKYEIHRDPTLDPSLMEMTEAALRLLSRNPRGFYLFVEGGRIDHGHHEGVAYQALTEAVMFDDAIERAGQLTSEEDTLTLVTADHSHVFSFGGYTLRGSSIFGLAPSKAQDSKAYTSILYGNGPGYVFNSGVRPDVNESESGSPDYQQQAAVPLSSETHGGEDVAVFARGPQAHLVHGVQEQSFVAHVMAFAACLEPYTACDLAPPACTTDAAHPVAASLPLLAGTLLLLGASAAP
T8 sequence (P24822 whole entry): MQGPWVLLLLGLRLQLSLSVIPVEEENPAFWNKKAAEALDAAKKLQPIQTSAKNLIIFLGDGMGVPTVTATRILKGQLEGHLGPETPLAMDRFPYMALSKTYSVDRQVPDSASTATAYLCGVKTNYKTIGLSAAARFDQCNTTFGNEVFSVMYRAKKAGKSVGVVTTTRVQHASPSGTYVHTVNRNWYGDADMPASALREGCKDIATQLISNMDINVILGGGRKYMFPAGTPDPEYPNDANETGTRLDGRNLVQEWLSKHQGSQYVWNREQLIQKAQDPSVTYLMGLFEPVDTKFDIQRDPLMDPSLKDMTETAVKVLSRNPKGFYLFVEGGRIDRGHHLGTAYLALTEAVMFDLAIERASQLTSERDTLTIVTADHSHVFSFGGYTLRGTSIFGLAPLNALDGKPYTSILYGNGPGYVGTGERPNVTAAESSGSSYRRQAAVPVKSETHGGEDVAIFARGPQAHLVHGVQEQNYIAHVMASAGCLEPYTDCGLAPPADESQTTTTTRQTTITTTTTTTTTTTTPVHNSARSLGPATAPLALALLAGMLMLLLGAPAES
T2 sequence (Q00975 whole entry): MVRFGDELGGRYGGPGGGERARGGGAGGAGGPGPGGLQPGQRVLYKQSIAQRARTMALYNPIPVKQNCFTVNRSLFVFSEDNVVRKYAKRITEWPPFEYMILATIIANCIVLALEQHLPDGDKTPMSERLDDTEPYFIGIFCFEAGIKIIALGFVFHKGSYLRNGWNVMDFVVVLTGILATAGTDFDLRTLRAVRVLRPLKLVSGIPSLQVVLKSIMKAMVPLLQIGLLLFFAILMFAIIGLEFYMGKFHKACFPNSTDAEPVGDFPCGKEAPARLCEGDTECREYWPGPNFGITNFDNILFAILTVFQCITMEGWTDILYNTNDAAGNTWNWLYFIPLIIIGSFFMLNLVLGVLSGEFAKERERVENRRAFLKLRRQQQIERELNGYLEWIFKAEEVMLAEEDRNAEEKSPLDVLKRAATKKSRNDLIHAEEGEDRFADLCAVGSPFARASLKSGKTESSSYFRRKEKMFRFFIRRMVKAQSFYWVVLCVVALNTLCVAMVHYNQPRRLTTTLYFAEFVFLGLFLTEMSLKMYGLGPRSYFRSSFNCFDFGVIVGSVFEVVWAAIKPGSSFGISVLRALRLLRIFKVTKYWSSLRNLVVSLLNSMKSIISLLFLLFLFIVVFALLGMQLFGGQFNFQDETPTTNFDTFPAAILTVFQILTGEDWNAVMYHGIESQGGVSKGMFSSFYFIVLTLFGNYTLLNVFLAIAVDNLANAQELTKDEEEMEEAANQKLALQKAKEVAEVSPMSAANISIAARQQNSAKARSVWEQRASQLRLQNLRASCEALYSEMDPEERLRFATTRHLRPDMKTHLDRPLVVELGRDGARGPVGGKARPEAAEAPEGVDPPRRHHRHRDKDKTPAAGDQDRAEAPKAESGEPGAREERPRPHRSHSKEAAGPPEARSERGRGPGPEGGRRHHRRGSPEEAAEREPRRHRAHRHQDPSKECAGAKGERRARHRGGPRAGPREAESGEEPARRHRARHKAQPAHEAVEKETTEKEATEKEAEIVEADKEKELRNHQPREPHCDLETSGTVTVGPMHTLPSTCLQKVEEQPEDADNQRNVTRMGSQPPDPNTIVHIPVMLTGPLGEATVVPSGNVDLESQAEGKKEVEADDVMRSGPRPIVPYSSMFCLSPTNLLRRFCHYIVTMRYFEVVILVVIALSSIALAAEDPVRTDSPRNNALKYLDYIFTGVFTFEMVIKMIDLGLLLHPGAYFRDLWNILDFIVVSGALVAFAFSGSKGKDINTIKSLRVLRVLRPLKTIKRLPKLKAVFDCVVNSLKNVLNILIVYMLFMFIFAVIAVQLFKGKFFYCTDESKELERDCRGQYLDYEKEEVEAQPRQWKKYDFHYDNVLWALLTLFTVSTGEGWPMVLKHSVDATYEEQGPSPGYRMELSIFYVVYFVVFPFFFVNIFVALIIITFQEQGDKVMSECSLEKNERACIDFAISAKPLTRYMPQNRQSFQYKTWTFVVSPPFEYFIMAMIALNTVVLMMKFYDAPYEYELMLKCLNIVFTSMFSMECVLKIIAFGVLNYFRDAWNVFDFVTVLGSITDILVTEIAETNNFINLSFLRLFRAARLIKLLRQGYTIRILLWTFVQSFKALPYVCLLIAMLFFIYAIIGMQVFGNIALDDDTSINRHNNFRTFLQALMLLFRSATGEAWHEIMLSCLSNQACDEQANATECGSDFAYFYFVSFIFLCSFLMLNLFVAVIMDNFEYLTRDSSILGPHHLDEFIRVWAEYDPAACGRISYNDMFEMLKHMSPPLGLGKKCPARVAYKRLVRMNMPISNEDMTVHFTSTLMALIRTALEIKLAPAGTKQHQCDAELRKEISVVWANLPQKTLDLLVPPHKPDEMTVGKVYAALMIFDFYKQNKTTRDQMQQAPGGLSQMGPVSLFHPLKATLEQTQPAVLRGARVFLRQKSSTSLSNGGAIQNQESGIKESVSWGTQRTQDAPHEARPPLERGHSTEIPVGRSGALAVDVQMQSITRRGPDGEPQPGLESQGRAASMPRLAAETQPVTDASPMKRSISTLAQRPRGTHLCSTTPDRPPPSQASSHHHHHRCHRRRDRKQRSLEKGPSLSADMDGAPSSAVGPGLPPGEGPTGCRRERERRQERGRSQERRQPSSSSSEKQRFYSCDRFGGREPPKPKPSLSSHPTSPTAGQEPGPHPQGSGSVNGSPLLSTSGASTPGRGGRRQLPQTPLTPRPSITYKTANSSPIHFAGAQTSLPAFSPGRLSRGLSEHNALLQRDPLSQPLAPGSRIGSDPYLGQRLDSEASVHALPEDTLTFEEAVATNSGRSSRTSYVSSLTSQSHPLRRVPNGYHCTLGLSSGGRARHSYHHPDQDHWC
T2 sequence (Q02410 whole entry): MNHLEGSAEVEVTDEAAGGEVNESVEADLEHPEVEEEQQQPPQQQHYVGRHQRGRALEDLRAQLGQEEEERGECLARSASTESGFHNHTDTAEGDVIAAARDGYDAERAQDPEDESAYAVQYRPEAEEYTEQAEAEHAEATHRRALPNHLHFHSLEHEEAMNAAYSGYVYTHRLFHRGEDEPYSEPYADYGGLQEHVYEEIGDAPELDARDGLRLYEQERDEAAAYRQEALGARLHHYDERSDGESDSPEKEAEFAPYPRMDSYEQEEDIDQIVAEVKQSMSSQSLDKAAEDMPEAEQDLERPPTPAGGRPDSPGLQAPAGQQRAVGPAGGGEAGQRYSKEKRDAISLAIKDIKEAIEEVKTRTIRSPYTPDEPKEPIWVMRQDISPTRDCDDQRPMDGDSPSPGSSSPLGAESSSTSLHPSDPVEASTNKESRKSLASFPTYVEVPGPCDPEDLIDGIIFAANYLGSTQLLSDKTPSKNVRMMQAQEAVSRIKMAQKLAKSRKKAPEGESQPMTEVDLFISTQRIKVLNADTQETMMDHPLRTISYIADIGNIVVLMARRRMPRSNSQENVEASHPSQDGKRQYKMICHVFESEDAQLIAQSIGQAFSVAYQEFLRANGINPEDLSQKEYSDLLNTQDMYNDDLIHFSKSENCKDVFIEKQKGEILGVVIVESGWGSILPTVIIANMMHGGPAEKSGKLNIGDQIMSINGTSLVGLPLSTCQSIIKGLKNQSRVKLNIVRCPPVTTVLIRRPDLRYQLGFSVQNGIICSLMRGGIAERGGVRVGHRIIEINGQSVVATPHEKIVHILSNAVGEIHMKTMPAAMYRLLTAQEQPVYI
T1 sequence (P63165 whole entry): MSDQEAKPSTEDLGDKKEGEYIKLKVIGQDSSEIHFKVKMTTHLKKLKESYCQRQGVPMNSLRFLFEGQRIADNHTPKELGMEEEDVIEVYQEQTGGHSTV
Chain of Cytochrome P450 2C9 (P11712 whole entry): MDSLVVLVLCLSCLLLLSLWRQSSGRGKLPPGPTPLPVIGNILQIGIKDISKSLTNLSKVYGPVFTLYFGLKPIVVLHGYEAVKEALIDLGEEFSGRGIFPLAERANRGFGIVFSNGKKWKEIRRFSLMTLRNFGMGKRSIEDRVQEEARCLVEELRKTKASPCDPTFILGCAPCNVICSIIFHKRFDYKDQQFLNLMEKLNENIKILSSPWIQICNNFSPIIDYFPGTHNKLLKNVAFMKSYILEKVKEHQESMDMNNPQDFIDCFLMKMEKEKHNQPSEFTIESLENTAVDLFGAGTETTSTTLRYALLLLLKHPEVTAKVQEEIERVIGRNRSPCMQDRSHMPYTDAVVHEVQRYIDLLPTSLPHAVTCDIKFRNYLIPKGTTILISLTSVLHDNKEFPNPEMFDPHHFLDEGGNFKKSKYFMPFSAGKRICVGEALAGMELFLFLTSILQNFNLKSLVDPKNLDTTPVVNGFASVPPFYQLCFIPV
Chain of DNA dC->dU-editing enzyme APOBEC-3A (P31941 whole entry): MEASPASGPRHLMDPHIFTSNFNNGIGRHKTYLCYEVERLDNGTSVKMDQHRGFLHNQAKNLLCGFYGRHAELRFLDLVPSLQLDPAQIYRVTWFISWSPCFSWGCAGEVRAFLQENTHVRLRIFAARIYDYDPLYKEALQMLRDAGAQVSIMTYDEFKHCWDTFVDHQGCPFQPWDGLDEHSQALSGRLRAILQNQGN

Structure (SMILES): C=C(C)C(=O)Nc1cccc(C2=NOC3(C2)C[C@@H](C(N)=O)N(C(=O)/C=C/C=C/C)C3)c1 (stereo partly drawn)
IC50 [1]: > 100 µM (inactive)
IC50 [2]: 3.25 µM (active)
IC50 [3]: 2.3 µM (active)
IC50 [4]: > 66.6 µM (inactive)
IC50 [5]: 34.3 µM (active)
IC50 [6]: 10 µM (active)
EC50 [7]: 1.17 µM (active)
IC50 [8]: 1.72 µM (active)
IC50 [9]: 3.41 µM (active)

AC50 (Cytochrome P450 2C19): 0.631 µM (inconclusive)
AC50 (Cytochrome P450 2D6): inconclusive
AC50 (Cytochrome P450 2C9): 1.41 µM (inconclusive)
Structure (SMILES): CCCOc1ccc(/C=C/C(=O)Nc2ccc([N+](=O)[O-])cc2C)cc1

IC50 [10]: 1.76 µM (active)
EC50 [11]: > 300 µM (not active)
IC50 [12]: > 100 µM (inactive)
IC50 [13]: 1.29 µM (active)
EC50 [14]: > 300 µM (not active)
EC50 [15]: > 100 µM (inactive)
IC50 [16]: 5.81 µM (active)
IC50 [17]: 1.53 µM (active)
EC50 [18]: > 100 µM (inactive)
IC50 [19]: 5.83 µM (active)
IC50 [20]: 25.8 µM (active)
Structure (SMILES): CNc1nnc(-c2cc3ccccc3oc2=O)s1
